From patent US20250250230A1, “HETEROCYCLIC COMPOUND” (TAKEDA PHARMACEUTICAL COMPANY LIMITED, priority 2022, published 2025)

biological target: T1, human orexin type 2 receptor (Homo sapiens, UniProt O43614); test: Measurement of orexin type 2 receptor agonist activity (calcium fluorescence, Fluo-4 AM, FDSS); assay type: cell-based; settings: test compound 3 μM; CHO cells expressing human OX2 receptor; DMSO = 0%, orexin A (human) = 100%
T1 construct: expressed in transfected cells
T1 sequence (O43614 1-444): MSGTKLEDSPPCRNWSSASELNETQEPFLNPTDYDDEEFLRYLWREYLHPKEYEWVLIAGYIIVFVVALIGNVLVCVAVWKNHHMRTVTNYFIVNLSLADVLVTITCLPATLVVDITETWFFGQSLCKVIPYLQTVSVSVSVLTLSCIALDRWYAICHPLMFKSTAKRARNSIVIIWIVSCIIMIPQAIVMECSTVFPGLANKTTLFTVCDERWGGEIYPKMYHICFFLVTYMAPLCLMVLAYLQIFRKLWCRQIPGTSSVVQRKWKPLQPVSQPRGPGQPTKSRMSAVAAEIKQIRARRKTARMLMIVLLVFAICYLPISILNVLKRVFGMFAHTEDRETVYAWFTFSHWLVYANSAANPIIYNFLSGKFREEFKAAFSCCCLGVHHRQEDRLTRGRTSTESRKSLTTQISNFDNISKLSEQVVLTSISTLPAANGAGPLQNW
Method in brief: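 CHO-K1 cells stably expressing human OX2R were loaded with Fluo-4 AM (30 min 37 °C, 30 min RT) in HEPES-buffered HBSS with 0.1% BSA and probenecid. Calcium fluorescence was followed on FDSS for 2 min after compound addition; activity normalised to DMSO (0%) and 10 nM orexin A (100%).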

Row | SMILES | OX2R agonist activity (3 μM, %)
1 | CS(=O)(=O)NC[C@@H]1CN(C(=O)[C@@H]2C[C@H]2c2ccccc2-c2c(F)cccc2F)CCO1 [Example 283, N-({(2S)-4-[(1R,2R)-2-(2′,6′-difluoro[1,1′-biphenyl]-2-yl)cyclopropane-1-carbonyl]morpholin-2-yl}methyl)methanesulfonamide] | 100%
2 | CN(C)S(=O)(=O)N[C@H]1CCN(C(=O)[C@@H]2C[C@H]2c2ccccc2-c2c(F)cccc2F)C1 [Example 289, N′-{(3S)-1-[(1R,2R)-2-(2′,6′-difluoro[1,1′-biphenyl]-2-yl)cyclopropane-1-carbonyl]pyrrolidin-3-yl}-N,N-dimethylsulfuric diamide] | 99%
3 | CCS(=O)(=O)NC1COCCN(C(=O)[C@@H]2C[C@H]2c2ccccc2-c2c(F)cccc2F)C1 (stereo partly drawn) [Example 294, N-{(6S)-4-[(1R,2R)-2-(2′,6′-difluoro [1,1′-biphenyl]-2-yl)cyclopropane-1-carbonyl]-1,4-oxazepan-6-yl}ethanesulfonamide, or N-{(6R)-4-[(1R,2R)-2-(2′,6′-difluoro[1,1′-biphenyl]-2-yl)cyclopropane-1-carbonyl]-1,4-oxazepan-6-yl}ethanesulfonamide] | 104%
4 | CN(C)S(=O)(=O)NC1COCCN(C(=O)[C@@H]2C[C@H]2c2ccccc2-c2c(F)cccc2F)C1 (stereo partly drawn) [Example 295, N′-{(6S)-4-[(1R,2R)-2-(2′,6′-difluoro[1,1′-biphenyl]-2-yl)cyclopropane-1-carbonyl]-1,4-oxazepan-6-yl}-N,N-dimethylsulfuric diamide, or N′-{(6R)-4-[(1R,2R)-2-(2′,6′-difluoro[1,1′-biphenyl]-2-yl)cyclopropane-1-carbonyl]-1,4-oxazepan-6-yl}-N,N-dimethylsulfuric diamide] | 100%
5 | CC1C(NS(C)(=O)=O)CCN1C(=O)[C@@H]1C[C@H]1c1ccccc1-c1c(F)cccc1F (stereo partly drawn) [Example 297, N-{(2R,3R)-1-[(1R,2R)-2-(2′,6′-difluoro[1,1′-biphenyl]-2-yl)cyclopropane-1-carbonyl]-2-methylpyrrolidin-3-yl}methanesulfonamide, or N-{(2S,3S)-1-[(1R,2R)-2-(2′,6′-difluoro[1,1′-biphenyl]-2-yl)cyclopropane-1-carbonyl]-2-methylpyrrolidin-3-yl}methanesulfonamide] | 101%
6 | CN(C)S(=O)(=O)NC[C@H]1CCN1C(=O)[C@@H]1C[C@H]1c1ccccc1-c1c(F)cccc1F [Example 298, N′-({(2R)-1-[(1R,2R)-2-(2′,6′-difluoro[1,1′-biphenyl]-2-yl)cyclopropane-1-carbonyl]azetidin-2-yl}methyl)-N,N-dimethylsulfuric diamide] | 100%
7 | CN(C)S(=O)(=O)NC[C@@H]1CN(C(=O)[C@@H]2C[C@H]2c2ccccc2-c2c(F)cccc2F)CCO1 [Example 299, N′-({(2S)-4-[(1R,2R)-2-(2′,6′-difluoro[1,1′-biphenyl]-2-yl)cyclopropane-1-carbonyl]morpholin-2-yl}methyl)-N,N-dimethylsulfuric diamide] | 90%
8 | CN(C)S(=O)(=O)N[C@H]1CCCN(C(=O)[C@@H]2C[C@H]2c2ccccc2-c2c(F)cccc2F)C1 [Example 302, N′-{(3S)-1-[(1R,2R)-2-(2′,6′-difluoro[1,1′-biphenyl]-2-yl)cyclopropane-1-carbonyl]piperidin-3-yl}-N,N-dimethylsulfuric diamide] | 97%
9 | CCS(=O)(=O)N[C@H]1CCCN(C(=O)[C@@H]2C[C@H]2c2c(F)cccc2-c2c(F)cccc2F)C1 [Example 307, N-{(3S)-1-[(1R,2R)-2-(2′,3,6′-trifluoro[1,1′-biphenyl]-2-yl)cyclopropane-1-carbonyl]piperidin-3-yl}ethanesulfonamide] | 100%
10 | CN(C)S(=O)(=O)N[C@H]1CCN(C(=O)[C@@H]2C[C@H]2c2c(F)cccc2-c2c(F)cccc2F)C1 [Example 309, N,N-dimethyl-N′-{(3S)-1-[(1R,2R)-2-(2′,3,6′-trifluoro[1,1′-biphenyl]-2-yl)cyclopropane-1-carbonyl]pyrrolidin-3-yl}sulfuric diamide] | 97%
11 | CN(C)S(=O)(=O)N[C@H]1CCCN(C(=O)[C@@H]2C[C@H]2c2c(F)cccc2-c2c(F)cccc2F)C1 [Example 312, N,N-dimethyl-N′-{(3S)-1-[(1R,2R)-2-(2′,3,6′-trifluoro[1,1′-biphenyl]-2-yl)cyclopropane-1-carbonyl]piperidin-3-yl}sulfuric diamide] | 100%
12 | CN(C)S(=O)(=O)NC[C@@H]1CCN1C(=O)C1CC1c1c(F)cccc1-c1c(F)cccc1F (stereo partly drawn) [Example 314, N,N-dimethyl-N′-({(2S)-1-[(1R,2R)-2-(2′,3,6′-trifluoro[1,1′-biphenyl]-2-yl)cyclopropane-1-carbonyl]azetidin-2-yl}methyl)sulfuric diamide, or N,N-dimethyl-N′-({(2S)-1-[(1S,2S)-2-(2′,3,6′-trifluoro[1,1′-biphenyl]-2-yl)cyclopropane-1-carbonyl]azetidin-2-yl}methyl)sulfuric diamide] | 99%
13 | C[C@H]1C[C@H](NS(C)(=O)=O)CN1C(=O)C1(C)CC1c1ccccc1-c1c(F)cccc1F (stereo partly drawn) [Example 315, N-{(3S,5S)-1-[(1R,2S)-2-(2′,6′-difluoro[1,1′-biphenyl]-2-yl)-1-methylcyclopropane-1-carbonyl]-5-methylpyrrolidin-3-yl}methanesulfonamide, or N-{(3S,5S)-1-[(1S,2R)-2-(2′,6′-difluoro[1,1′-biphenyl]-2-yl)-1-methylcyclopropane-1-carbonyl]-5-methylpyrrolidin-3-yl}methanesulfonamide] | 91%
14 | Cc1ccc(C2CC2C(=O)N2CC[C@H](NS(C)(=O)=O)C2)c(-c2c(F)cccc2F)c1 (stereo partly drawn) [Example 318, N-{(3S)-1-[(1R,2R)-2-(2′,6′-difluoro-5-methyl [1,1′-biphenyl]-2-yl)cyclopropane-1-carbonyl]pyrrolidin-3-yl}methanesulfonamide, or N-{(3S)-1-[(1S,2S)-2-(2′,6′-difluoro-5-methyl[1,1′-biphenyl]-2-yl)cyclopropane-1-carbonyl]pyrrolidin-3-yl}methanesulfonamide] | 96%
15 | CS(=O)(=O)N[C@H]1C[C@H](O)CN(C(=O)[C@@H]2C[C@H]2c2ccccc2-c2c(F)cccc2F)C1 [Example 319, N-{(3S,5S)-1-[(1R,2R)-2-(2′,6′-difluoro[1,1′-biphenyl]-2-yl)cyclopropane-1-carbonyl]-5-hydroxypiperidin-3-yl}methanesulfonamide] | 101%
16 | CO[C@@H]1CN(C(=O)[C@@H]2C[C@H]2c2ccccc2-c2c(F)cccc2F)C[C@H]1NS(C)(=O)=O [Example 323, N-{(3R,4R)-1-[(1R,2R)-2-(2′,6′-difluoro[1,1′-biphenyl]-2-yl)cyclopropane-1-carbonyl]-4-methoxypyrrolidin-3-yl}methanesulfonamide] | 96%
17 | CS(=O)(=O)N[C@H]1CCN(C(=O)C2(F)CC2c2ccccc2-c2c(F)cccc2F)C1 (stereo partly drawn) [Example 324, N-{(3S)-1-[(1R,2R)-2-(2′,6′-difluoro[1,1′-biphenyl]-2-yl)-1-fluorocyclopropane-1-carbonyl]pyrrolidin-3-yl}methanesulfonamide, or N-{(3S)-1-[(1S,2S)-2-(2′,6′-difluoro[1,1′-biphenyl]-2-yl)-1-fluorocyclopropane-1-carbonyl]pyrrolidin-3-yl}methanesulfonamide] | 96%
18 | CS(=O)(=O)N[C@H]1CCCN(C(=O)C2(F)CC2c2ccccc2-c2c(F)cccc2F)C1 (stereo partly drawn) [Example 325, N-{(3S)-1-[(1R,2R)-2-(2′,6′-difluoro[1,1′-biphenyl]-2-yl)-1-fluorocyclopropane-1-carbonyl]piperidin-3-yl}methanesulfonamide, or N-{(3S)-1-[(1S,2S)-2-(2′,6′-difluoro[1,1′-biphenyl]-2-yl)-1-fluorocyclopropane-1-carbonyl]piperidin-3-yl}methanesulfonamide] | 96%
19 | O=C([C@@H]1C[C@H]1c1ccccc1-c1c(F)cccc1F)N1CC[C@H](NS(=O)(=O)N2CCC2)C1 [Example 326, N-{(3S)-1-[(1R,2R)-2-(2′,6′-difluoro[1,1′-biphenyl]-2-yl)cyclopropane-1-carbonyl]pyrrolidin-3-yl}azetidine-1-sulfonamide] | 89%
20 | CC1(C(=O)N2CCC2CNS(C)(=O)=O)CC1c1ccccc1-c1c(F)cccc1F (stereo not drawn) [Example 327, N-({1-[2-(2′,6′-difluoro[1,1′-biphenyl]-2-yl)-1-methylcyclopropane-1-carbonyl]azetidin-2-yl}methyl)methanesulfonamide optical isomer] | 100%
21 | CS(=O)(=O)N[C@H]1CCN(C(=O)C2C(c3ccccc3-c3c(F)cccc3F)C2(F)F)C1 (stereo partly drawn) [Example 328, N-{(3S)-1-[(1R,3R)-3-(2′,6′-difluoro[1,1′-biphenyl]-2-yl)-2,2-difluorocyclopropane-1-carbonyl]pyrrolidin-3-yl}methanesulfonamide, or N-{(3S)-1-[(1R,3R)-3-(2′,6′-difluoro[1,1′-biphenyl]-2-yl)-2,2-difluorocyclopropane-1-carbonyl]pyrrolidin-3-yl}methanesulfonamide] | 94%
